# Results published in paper PMC4603705, “A bioinspired peptide scaffold with high antibiotic activity and low in vivo toxicity” (Scientific Reports, 2015).
# “Also recorded” adds a separate entry of the source. Bridge positions count the residues as written; N and C are the ends. Square brackets hold non-standard residues; d marks the D form. Peptide text beside a SMILES is read from it. * marks the point of attachment. Decanoyl = CCCCCCCCCC(=O)*; Nle = CCCC[C@H](N)C(=O)O; Dab = NCC[C@H](N)C(=O)O
# Tests used:
# P. aeruginosa ATTC 9027 = type: cell-based, Pseudomonas aeruginosa; details: ATTC 9027
# Protocol: (§1) MICs were measured after 18–20 h of incubation in sterile 96-well plates (Corning Costar 3598 microtiter plates) in Mueller Hinton Broth (MHB) culture medium, (Difco, USA), according to well known in vitro protocols. Bacterial strains in Table 1 were: P. aeruginosa ATTC 9027, E. coli ATTC 8739, S. aureus ATTC 6538, and E. faecalis ATTC 29212. MICs shown in table 4 were performed by Mary Conrad at Cubist Pharmaceuticals (Lexington, MA) in non-binding surface plates.
# E. coli ATTC 8739 = type: cell-based, Escherichia coli; details: ATTC 8739
# Protocol: as §1
# E. coli = tested on: E. coli
# Protocol: (§2) Strains of E. coli and P. aeruginosa with resistance to quinolones and carbapenems as well as multi-drug-resistant bacteria were tested.
# as §1
# P. aeruginosa = tested on: P. aeruginosa
# Protocol: as §2, §1
# [1] = In vivo acute toxicity test (up-and-down procedure, OECD 425); set-up: species or system mice; details: mouse, in vivo, sc; CD-1 mice, subcutaneous, up-and-down procedure, maximum likelihood method, 14 days
# Protocol: (§3) An in vivo acute toxicity test was performed on CD-1 mice. The lethal dose (LD50) was determined according to the up-and-down procedure. Compound 38 was administered subcutaneously at designated doses (100, 200 and 400 mg/kg).
# (§4) The evaluation of acute toxicity was conducted based on OECD 425 (Acute Oral Toxicity – Up-and-Down-Procedure (UDP) March 2006). The procedure was evaluated and accepted by the Ethical Committee of Experimental Animals of the University of Barcelona.
# (§5) The main test consists of a single ordered dose progression in which animals are dosed, one at a time, at a minimum of 24-hour intervals.
# (§6) Compound 38 was dissolved in PBS (pH 7.4), and administered subcutaneously to CD-1 mice at selected doses (100, 200 and 400 mg/kg). Since 5 reversals occurred in 6 consecutive animals tested between the 200 mg/Kg dose (the 3 animals, survived), and the 400 mg/Kg dose (the 3 animals died) the test was stopped.
# (§7) Mortality was monitored for 14 days post-treatment, and LD50 was determined using the maximum likelihood method.
# CD-1 mice = assay: as above; details: for Outcome of mice: CD-1 mice
# Protocol: as §3, §4, §5, §6, §7
# E. coli (ATCC 25922) [2] = assay: Flow cytometry (PI membrane permeability, BOX membrane potential), E. coli; type: cell-based, Escherichia coli; details: 4 μg/mL
# Protocol: (§8) The mechanism of action at the membrane level of our best candidate was studied using flow cytometry. To assess membrane permeability, a propidium iodide (PI) probe was used[43][44]. The fluorescence conferred by this probe is generally associated with cells that have lost their membrane integrity. The effect on membrane potential was evaluated with bis-(1,3-dibutylbarbituric acid) trimethine oxonol (BOX). Membrane depolarization leads to the incorporation of this anionic dye into the cell where it binds to lipid-rich intracellular compounds, resulting in an increase in fluorescence.
# (§9) An overnight culture (12 to 16 h) of S. aureus (ATCC 29213) or E. coli (ATCC 25922) in Tryptic Soy Broth (TSB) was grown at 37 °C and 400 μL were added in 50 mL of tryptone water (∼10^7 bacteria/mL). The bacterial suspension was split into aliquots of 4-5 mL and treated with the peptides (at the MIC) for different incubation times at room temperature. Cells were collected by centrifugation (10000 rpm, 20 min) and resuspended in 1 mL of filtered Ringer’s solution.
# (§10) A stock solution of propidium iodide (PI, 1 mg/mL, Molecular Probes) and bis-(1,3-dibutylbarbituric acid) trimethine oxonol (BOX, 250 μM, Sigma Aldrich) was prepared in distilled water. Portions (10 μL and 2 μL, respectively) were added to aliquots of cells (100 μL of each sample in 1 mL of Ringer’s solution) to give a final concentration of 10 μg/mL of PI and 0.5 μM for BOX.
# (§11) Flow cytometric measurements were performed on a Gallios multi-colour flow cytometer instrument (Beckman Coulter, Inc, Fullerton, CA) set up with the 3-lasers 10 colors standard configuration. Excitation was done using a blue (488 nm) laser. Forward scatter (FS), side scatter (SS), green fluorescence (525/40 nm) from BOX and red fluorescence (620/30 nm) emitted by PI were collected using logarithmic scales. FS was used as the discriminating parameter. The single-cell bacterial population was selected on a forward-side scatter plot. Fluorescence was presented in a dot plot of BOX vs. PI. Three regions were defined on this graph according to the controls: depolarized, permeabilized and non-affected cells. Control cells (non-stained and single stained populations) were used to define these regions. 25,000 cells defined according to their scatter parameters were counted in each sample.
# S. aureus (ATCC 29213) [3] = assay: Flow cytometry (PI membrane permeability, BOX membrane potential), S. aureus; type: cell-based, Staphylococcus aureus; details: 4 μg/mL
# Protocol: as §8, §9, §10, §11
# E. coli (ATCC 25922) [4] = assay: Reduction of viability by plate count, E. coli; type: cell-based, Escherichia coli; details: 4 μg/mL
# Protocol: as §9
# S. aureus (ATCC 29213) [5] = assay: Reduction of viability by plate count, S. aureus; type: cell-based, Staphylococcus aureus; details: 4 μg/mL
# Protocol: as §9
# E. coli (ATCC 25922) [6] = assay: Transmission electron microscopy of treated E. coli; type: cell-based, Escherichia coli; details: 120 min, 2 μg/mL (Figure 2 legend)
# Protocol: (§12) An overnight culture (12 to 16 h) of S. aureus (ATCC 29213) or E. coli (ATCC 25922) in Tryptic Soy Broth (TSB) was grown at 37 °C and 500 μL were added in 50 mL of tryptone water (∼10^8 bacteria/mL). […] Cells were collected by centrifugation (10000 rpm, 20 min).
# (§13) Samples were fixed with 2.5% glutaraldehyde in phosphate buffer for 2 h at 4 °C, then washed with the same buffer and post fixed with 1% osmium tetroxide in buffer containing 0.8% potassium ferricyanide at 4 °C. The samples were then dehydrated for 1 hour in acetone and infiltrated in a gradded series of Epon resin (Ted Pella Inc., USA) during 2 days, and finally embedded in fresh Epon resin and polymerised at 60 °C during 48 hours.
# (§14) Ultrathin sections were obtained using a Leica Ultracut UCT ultramicrotome (Leica, Vienna) and mounted on Formvar-coated copper grids. Sections were stained with 2% aqueous uranyl acetate and lead citrate and examined in a JEM-1010 electron microscope (Jeol, Japan).
# S. aureus (ATCC 29213) [7] = assay: Transmission electron microscopy of treated S. aureus; type: cell-based, Staphylococcus aureus; details: 4 μg/mL, 120 min
# Protocol: as §12, §13, §14
# [8] = resistant to nalidixic acid, cotrimoxazole and ampicillin
smiles,measurement,setting,value
"CCCCCCCCCC(=O)N[C@@H](CCN)C(=O)N[C@H](C(=O)N[C@@H](CCN)C(=O)N[C@H]1CSSC[C@H](C(N)=O)NC(=O)[C@H](CCN)NC(=O)[C@H](CCN)NC(=O)[C@H](CCCC)NC(=O)[C@@H](Cc2ccccc2)NC(=O)[C@H](CCN)NC1=O)[C@@H](C)O [Analog 38, decanoyl -Dab-Thr-Dab-Cys-Dab-Phe-Nle-Dab-Dab-Cys] (Decanoyl-[Dab]T[Dab]C[Dab][dF][Nle][Dab][Dab][dC]-NH2; disulfide 4-10)",MIC P. aeruginosa,P. aeruginosa ATTC 9027,1 µg/mL
same,MIC E. coli,E. coli ATTC 8739,2 µg/mL
same,MIC E. coli NDM-1,"E. coli; highly-resistant, New Delhi metallo-beta-lactamase gene",0.5 µg/mL
same,MIC E. coli VAL 5,E. coli; resistant to nalidixic acid,0.5 µg/mL
same,MIC E. coli MAC 21a,E. coli; [8],0.5 µg/mL
same,MIC E. coli VAL 10,E. coli; [8],0.5 µg/mL
same,MIC P. aeruginosa 38a,P. aeruginosa,0.5 µg/mL
same,MIC P. aeruginosa 40b,P. aeruginosa,4 µg/mL
same,LD50 at 14 days,[1],283 mg/kg
same,Outcome of mice,CD-1 mice; 100 mg/kg subcutaneous,survived with no signs of toxicity
same,Outcome of mice,CD-1 mice; 200 mg/kg subcutaneous,survived with no signs of toxicity; also recorded: survived
same,Necropsy of surviving mice,"CD-1 mice; 200 mg/kg subcutaneous, after 14 days",no signs of pathology in vital organs
same,Outcome of mice,CD-1 mice; 400 mg/kg subcutaneous,died
same,LD50 relative to LD50 of PxB,CD-1 mice; subcutaneous,~5 times
same,% of stained cells PI,E. coli (ATCC 25922) [2]; 30 min,7%
same,% of stained cells BOX,"E. coli (ATCC 25922) [2]; 30 min, listed as 38",around 50%
same,% of stained cells BOX,"E. coli (ATCC 25922) [2]; 30 min, listed as #38",47%
same,% of stained cells BOX,E. coli (ATCC 25922) [2]; 60 min,50%
same,% of stained cells PI,E. coli (ATCC 25922) [2]; 60 min,23%
same,% of stained cells BOX,E. coli (ATCC 25922) [2]; 120 min,47%
same,% of stained cells PI,E. coli (ATCC 25922) [2]; 120 min,43%
same,% of stained cells BOX,S. aureus (ATCC 29213) [3]; 30 min,1%
same,% of stained cells PI,S. aureus (ATCC 29213) [3]; 30 min,2%
same,% of stained cells BOX,S. aureus (ATCC 29213) [3]; 60 min,1%
same,% of stained cells PI,S. aureus (ATCC 29213) [3]; 60 min,3%
same,% of stained cells BOX,S. aureus (ATCC 29213) [3]; 120 min,4%
same,% of stained cells PI,S. aureus (ATCC 29213) [3]; 120 min,4%
same,% viability reduction,E. coli (ATCC 25922) [4]; 30 min,20%
same,% viability reduction,E. coli (ATCC 25922) [4]; 60 min,60%
same,% viability reduction,E. coli (ATCC 25922) [4]; 120 min,85%
same,% viability reduction,S. aureus (ATCC 29213) [5]; 30 min,15%
same,% viability reduction,S. aureus (ATCC 29213) [5]; 60 min,60%
same,% viability reduction,S. aureus (ATCC 29213) [5]; 120 min,85%
same,Effect on cell morphology (TEM),E. coli (ATCC 25922) [6],abnormal membrane septation and the formation of blebs on the bacterial surface
same,Effect on cell morphology (TEM),S. aureus (ATCC 29213) [7],numerous double-layered spherical mesosome-like structures
